Values quoted from earlier work, collected in patent US20090012010A1, “Amino acid derivatives as calcium channel blockers” (Neuromed Phramaceuticals Ltd., priority 2007, published 2009).

System: T-type calcium channels

COCC(=O)O[C@]1(CCN(C)CCCc2nc3ccccc3[nH]2)CCc2cc(F)ccc2[C@@H]1C(C)C [Mibefradil]
fold selective for T-type over L-type channels: 10-30 fold
